{"source": "paper PMC5711494", "about": "“Sterol methyltransferase a target for anti-amoeba therapy: towards transition state analog and suicide substrate drug design” (Journal of Lipid Research, 2017)", "key": {"[1]": {"system": "Acanthamoeba castellanii trophozoites (strain ATCC 30010)", "assay": "Ac trophozoite growth inhibition and minimum amoebicidal concentration (trypan blue exclusion)", "format": "cell-based", "conditions": "48 h incubation", "procedure": "Ac strain ATCC 30010 was inoculated (1 × 10^4 cells/ml) into tissue culture T-25 ml flasks, prepared with ATTC media 712 and cultured axenically in 5 ml medium at 25°C. Continuous cultures populated by trophozoites ([…]; the remaining cells were cysts) was maintained by sub-culturing 4–5 day growth arrested cells (1 × 10^6 cells/ml) into fresh medium. Steroidal inhibitor and azole susceptibility assays were performed in 24-well (4 × 6) microtiter plates (3 ml total). Trophozoite assay conditions and preparation of stock solutions made to 1 μg/10 μl and 1 μg/100 μl in DMSO through serial dilution to achieve final inhibitor concentrations of 64, 32, 16, 8, 4, 2, 1, 0.5, 0.25, 0.125, 0.0625, and 0.03125 µg/ml in 1% DMSO as reported previously for voriconazole incubated with Ac ([25]). Growth curves to evaluate treated trophozoites were initiated with 1 × 10^6 cells/ml and incubated for 48 h. Cell number was calculated with the use of a hemocytometer. The percentage of viable trophozoites following exposure to different concentrations of inhibitors was determined by the standard trypan blue exclusion method. Cells stained blue were considered nonviable. […] The IC50 of inhibitors against trophozoite growth was evaluated using GraphPad Prism with default setting (GraphPad Software Inc., CA)."}, "[2]": {"biological_target": "Ac24-SMT (sterol 24-methyltransferase, SMT1) (Acanthamoeba castellanii, UniProt L8GNG7)", "sequence (L8GNG7 entry or part of it)": "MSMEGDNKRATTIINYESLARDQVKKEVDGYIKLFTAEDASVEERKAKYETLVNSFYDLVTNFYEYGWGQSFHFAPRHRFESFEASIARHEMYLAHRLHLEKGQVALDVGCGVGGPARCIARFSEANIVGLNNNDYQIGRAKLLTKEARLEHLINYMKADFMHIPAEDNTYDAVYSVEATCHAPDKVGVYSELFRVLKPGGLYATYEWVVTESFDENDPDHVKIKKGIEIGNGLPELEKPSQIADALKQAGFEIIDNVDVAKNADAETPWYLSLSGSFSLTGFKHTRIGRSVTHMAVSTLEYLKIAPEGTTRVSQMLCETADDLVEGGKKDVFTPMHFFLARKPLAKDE", "assay": "Inhibition of recombinant Ac24-SMT assayed with native substrate cycloartenol and [methyl-3H3]SAM", "format": "biochemical", "conditions": "read-out: Ki against 24-SMT (competitive inhibitor); assayed with natural substrate", "procedure": "The SMT constructs were transformed into competent BL21(DE3) cells and transformants selected against 100 µg/ml ampicillin. Expression of the SMT constructs and partial purification of the recombinant proteins followed the procedure described previously ([19]). Briefly, a single colony for 24-SMT and 28-SMT were grown overnight in an orbital shaker (250–300 rpm) at 37°C in Luria broth containing ampicillin and then reinoculated in fresh medium at 1 in 10 dilution. […] In one tube, cells were induced by addition of isopropyl thio-galactoside at a final concentration of 1 mM and in the other tube, were un-induced. Cells were harvested 2 and 4 h after induction and an equal number of cells (as calculated by OD @600 nm) from induced (+) and un-induced (−) cultures were boiled with 1X Laemmli’s buffer and analyzed by SDS-PAGE (12%). […] Total protein concentrations were determined by Bradford dye-binding procedure with bovine γ-globulin as standard. […] Incubation mixtures were saponified with methanolic potassium hydroxide and extracted with hexane (3 × 1 ml) and concentrated to dryness providing the nonsaponifiable lipid fraction; radioactivity was determined by liquid scintillation counting. […] Controls containing radioactive SAM and no sterol used to background subtract radioactivity in these treatments was less than 500 dpm. […]"}, "Ac24-SMT [3]": {"system": "Ac24-SMT", "assay": "Time-dependent inactivation of Ac24-SMT (Kitz and Wilson plot)", "format": "biochemical, Acanthamoeba castellanii", "procedure": "To show time-dependent inactivation, experiments were performed with a 100,000 g supernatant fraction containing the recombinant Ac24-SMT in two major steps. First, a preincubation experiment was established; to a 9 ml test tube containing DHL at the test concentrations (varied between 0 and 20 µM), 2.4 mg of total protein (ca. 160 µg SMT), 1.5 ml buffer, and a fixed concentration of SAM (100 µM) were added. The incubation was allowed to incubate for up to 20 min at 35°C. Second, at the time indicated, aliquots (20 µl) of the preincubation preparation were placed in a precooled (dry ice-ethanol) test tube to prevent catalysis. The frozen samples were then individually thawed and filtered three times with phosphate buffer to remove excess unbound inhibitor using Amicon ultracentrifugation filters. The remaining enzyme activity in each sample was determined by assaying each at saturating cycloartenol concentration (100 µM) and [methyl-^3H3] SAM (100 µM; 0.6 µC) under standard assay conditions for 1 h. The logarithmic percentage of remaining enzyme activity was plotted against the incubation time of the enzyme-inhibitor mixture to determine the half-life (T1/2) of inactivation. […] The point of intersection with the ordinate is the T1/2 at saturation from which the kinact can be calculated whereas the intercept along the X-axis gives the −1/Ki from which the Ki can be calculated."}, "Ac24-SMT [4]": {"system": "Ac24-SMT", "assay": "Covalent labeling of Ac24-SMT with DHL and 3H-SAM, SDS-PAGE gel slice counting", "format": "binding, Acanthamoeba castellanii", "conditions": "45 min, 35°C, SDS-PAGE gel slices", "procedure": "For 24-SMT labeling, partially pure recombinant enzyme obtained from 0.25 salt gradient fraction after Q-chromatography and desalted with buffer exchange (as reported in reference) was generated as a reference specimen of cloned SMT migrating at ∼39 kDa indicated by a protein ladder (Bio-Rad). Protein was stained with Coomassie Brilliant Blue R 250. […] After filtration and concentration, 22 µg total protein was loaded on 12% SDS-PAGE gel against a protein ladder (Bio-Rad) that ranged from 15 to 100 kDa. Next, five bands were excised from the gel corresponding to approximate molecular masses that range between 1) 15–25 kDa, 2) 25–35 KDa, 3) 35–45 kDa, 4) 45–55 kDa, and 5) 55–75 kDa, placed into a vial of 50% hydrogen peroxide, and left overnight at 60°C for digestion ([29]). To these vials was added scintillant and the radioactivity (^3H in dpm) measured by liquid scintillation counting."}}, "note": "pIC50, pKi: −log10 of the molar value.", "data": [{"smiles": "CC(CCC=C1CC1)C1CC[C@@]2(C)C3=C(CCC12C)C1(C)CCC(O)C(C)(C)C1CC3", "note": "(stereo partly drawn) [DHL, 26,27-dehydrolanosterol]", "values": [{"measurement": "MAC (complete inhibition of growth, minimum amoebicidal concentration)", "setting": "[1]", "result": 15, "unit": "µM"}, {"measurement": "pIC50", "setting": "[1]; Acanthamoeba castellanii, ATCC30010, Ac trophozoites", "result": 5.22}, {"measurement": "pKi", "setting": "[2]", "result": 4.80}, {"measurement": "partition ratio (kcat/kinact)", "setting": "Ac24-SMT [3]; C26 methyl monol product per inactivation event, 24-SMT", "result": "~1"}, {"measurement": "kinact (maximum rate of inactivation) of Ac24-SMT", "setting": "Ac24-SMT [3]; preincubation with SAM 100 µM, 35°C", "result": "~0.4", "unit": "min⁻¹"}, {"measurement": "radioactivity associated with protein band of ∼39 kDa", "setting": "Ac24-SMT [4]", "result": "< 90", "unit": "%"}]}]}
